Test results from patent US5102667A, “Isoindolone derivatives, their preparation and the pharmaceutical compositions containing them” (Rhone-Poulenc Sante, priority 1989, dated 1992).
Read-outs that look alike come from different tables or passages of the source.

Key:
[1] = analgesic activity (technique of E. Siegmund et al.); format: in vivo
From the text: Exp. Biol. Med., 95, 729 (1957).

[2] = tested on: substance P receptors of human cells: lymphoblasts of line IM 9; experiment: binding of substance P-H^3 on washed homogenates of IM-9 cells; conditions: substance P-H^3 1 nM
Protocol: Substance P plays a role in the modulation of immune processes (J. P. McGillis et al., Fed. Proc., 46 (1), 196-199 (1987)). Substance P binds to receptors of human cells in cultures: the lymphoblasts of line IM 9 [D. G. Payan et al., J. of Immunology, 133 (6), 3260-5 (1984)]. The products according to the invention displace substance P at these locations.
Binding substance P--H^3 (concentration 1 nM)
on washed homogenates of IM-9 cells after freezing

substance P = experiment: inhibition of the increase in capillary permeability caused by substance P (technique of A. Saria et al.); format: in vivo; conditions: Rattus norvegicus, iv, rats
From the text: The study of several isoindolone derivatives of general formula (I) using the technique of A. Saria et al., Arch.

septide [3] = experiment: antagonism of behavioural effects induced by septide administered intrathecally (technique of R. E. Rodriguez et al.); format: in vivo; conditions: rats
septide [4] = experiment: antagonism of hypotension induced by septide / substance P (technique of C. A. Maggi et al.); format: in vivo; conditions: 0.2 mg/kg i.v./min, for 5 min; rats; i.v. injection of 250 μg of septide
Protocol: The injection of substance P into the animal causes hypotension. The products studied using the technique of C. A. Maggi et al., J. Auton. Pharmac., 7, 11-32 (1987) show an antagonist effect in rats towards this hypotension. In particular, the product of Example 60 administered in a dose of 0.2 mg/kg i.v./min, for 5 min, causes an approximately 50% antagonism of the hypotension induced by an i.v. injection of 250 μg of septide.

Compound `N=C(Cc1ccccc1)N1C[C@@H]2C(=O)CCC(c3ccccc3)(c3ccccc3)[C@@H]2C1` (racemic) [Example 4, (3aRS,7aRS)-2-(α-iminophenethyl)-7,7-diphenyl-4-perhydroisoindolone] has an ED50 ([1]; po, read-out: ED50) of 42 mg/kg.
Work on `O=C1CCC(c2ccccc2)(c2ccccc2)[C@@H]2CN(C(Cc3ccccc3)=NCc3ccccc3)C[C@H]12` (racemic) [Example 13, (3aRS,7aRS)-2-(α-benzyliminophenethyl)-7,7-diphenyl-4-perhydroisoindolone] yielded an ED50 ([1]; po, read-out: ED50) of 19 mg/kg.
For `COc1ccccc1CC(=N)N1C[C@@H]2C(=O)CCC(c3ccccc3)(c3ccccc3)[C@@H]2C1` (racemic) [Example 48, (3aRS,7aRS)-2-[1-imino-2-(2-methoxyphenyl)ethyl]-7,7-diphenyl-4-perhydroisoindolone], the ED50 ([1]; p.o.) was 4 mg/kg p.o.
`O=C1CCC(c2ccccc2)(c2ccccc2)[C@@H]2CN(C(Cc3ccccc3)=NCc3cccs3)C[C@H]12` (relative stereo) [Example 27] showed an ED50 ([1]; po, read-out: ED50) of 29 mg/kg.
For `COc1ccccc1CC(=O)N1C[C@@H]2C(=O)CCC(c3ccccc3)(c3ccccc3)[C@@H]2C1` [Example 49, (3aR,7aR)-(-)-7,7-diphenyl-2-[(2-methoxyphenyl)acetyl]-4-perhydroisoindolone], the “Binding substance P-H^3 (concentration 1 nM) on washed homogenates of IM-9 cells after freezing” value [2] was 680.
In the case of `COc1ccccc1CC(=N)N1C[C@@H]2C(=O)CCC(c3ccccc3)(c3ccccc3)[C@@H]2C1` [Example 50, (3aR,7aR)-2-[1-imino-2-(2-methoxyphenyl)ethyl]-7,7-diphenyl-4-perhydroisoindolone], the ED50 ([1]; p.o.) is reported as 0.3 mg/kg p.o, the ED50 (substance P) is reported as roughly 0.05 mg/kg and the “% inhibition of the behaviour at a dose of 10 mg/kg sc” value (septide [3]) is reported as 50%.
In the case of `CN(C)c1ccccc1CC(=O)N1C[C@@H]2C(=O)CCC(c3ccccc3)(c3ccccc3)[C@@H]2C1` [Example 60, (3aR,7aR)-7,7-diphenyl-2-[2-(2-dimethylaminophenyl)acetyl]-4-perhydroisoindolone], the ED50 ([1]; po, read-out: ED50) is reported as 38 mg/kg, the ED50 (substance P) is reported as roughly 1 mg/kg and the “% inhibition of the behaviour at a dose of 10 mg/kg sc” value (septide [3]) is reported as 80%. The “antagonism of the hypotension induced by septide” value (septide [4]) was “approximately 50%”.
In the case of `COc1ccccc1[C@H](C)C(=O)N1C[C@@H]2C(=O)CCC(c3ccccc3)(c3ccccc3)[C@@H]2C1` [Example 76, (3aR,7aR)-7,7-diphenyl-2-[(S)-2-(2-methoxyphenyl)propionyl]-4-perhydroisoindolone], the “Binding substance P-H^3 (concentration 1 nM) on washed homogenates of IM-9 cells after freezing” value [2] is reported as 315.
